Measured values as given in patent US12594265B2, “Methods and compositions for inhibition of STAT3” (Ohio State Innovation Foundation, priority 2017, dated 2026).
Marks after values point to notes of the source that are not given here.

Columns and labels:
[1] = test system: adoptively transferred EAE; experiment: Adoptively transferred EAE model of MS (B10.PL mice); type: in vivo
Method: (§1) EAE Induction. Immunization: 8-10 week old B6/WT or SJL/WT mice were s.c. injected over four sites in the flank with 200 μg MOG 35-55 or […] (CS bio) in an emulsion with CFA (Difco). 200 ng pertussis toxin (List) per mouse in PBS was injected i.p. at the time of immunization and 48 h later. Adoptive transfer: Splenocytes were isolated from naïve 5-10-week-old Vα2.3/Vβ8.2 TCR transgenic mice and activated with 10 μg/ml of MBP Ac1-11 with or without rmIL-6 in 24-well plates at […] with irradiated B10.PL splenocytes (6×10^8 cells/well). After 72 hours, the cells were washed with PBS and 8×10^6 were injected i.p. into naïve B10.PL mice. Evaluation. The mice were evaluated daily for clinical signs of EAE. Mice were scored on scale of 0 to 6:0, no clinical disease; 1, limp/flaccid tail; 2, moderate hind limb weakness; 3. severe hind limb weakness; 4. complete hind limb paralysis; 5 quadriplegia or premoribund state; and 6, death.
The in vivo efficacy of LLL12b was evaluated in adoptively transferred EAE model by treating EAE mice with […] of LLL12b for 7 days after disease onset. FIGS. 9A-9C show representative data for the effect of a representative disclosed compound, LLL12b, on suppression of EAE development in an adoptive transfer EAE model of MS. […] The mice were then treated with either DMSO or a representative disclosed compound, LLL12b, (10 mg/kg) by daily intraperitoneal for 7 days. […] The summary of all four independent experiments was shown below in Table 1.
EAE was induced via adoptive transfer of activated myelin-specific CD4 T cells from Vα2.3/Vβ8.2 TCR transgenic mice into B10.PL mice. LLL12b or DNSO (vehicle control) was injected i.p. into mice daily for 7 days, starting when 70% of the mice developed clinical EAE. Mice were monitored for clinical signeds of EAE. Assessment of clinical EAE includes the incidence of EAE, the mean peak clinical scores±SEM and the area under the curve. The results of three independent experiments are shown. ^aP<0.01, comparing incidence of EAE in LLL12b group versus DMSO group. ^bP<0.01, comparing mean peak clinical score of LLL12b group versus DMSO group. ^cP<0.05, comparing area under the curve of LLL12b group versus DMSO group.
LLL12b treatment suppresses the production of inflammatory cytokines in myelin-specific CD4 T cells and promotes Treg development in vivo. The ex vivo analysis to determine the T effector function of myelin-specific CD4 T cells as well as Treg development in treated mice was carried. FIGS. 10A-10C show representative data for the effect of treatment with a representative disclosed compound. LLL12b, on Treg development in an adoptively transferred EAE model of MS. Briefly, splenocytes from were isolated from either a LLL12b- or DMSO-treated group as indicated and analysed.

[2] = test system: pSTAT3 in myelin-specific CD4 T cells; experiment: pSTAT3 levels in myelin-specific CD4 T cells (intracellular flow cytometry); type: cell-based, mice; details: 0.250 μM; MBP Ac1-11 and IL-6 activation
Method: Intracellular staining and flow cytometric analysis. Flow cytometric analysis was performed to evaluate the expression of surface markers and T-bet in CD4 T cells, as previously described (Yang, Weiner et al. 2009). Briefly, splenocytes were activated with antigen or αCD3/CD28 for 48 to 72 hours. Cells were then collected, washed, and resuspended in staining buffer (1% BSA in PBS). The cells were incubated with mAbs to the cell-surface markers for 30 min at 4° C. After washing twice with staining buffer, cells were fixed and permeabilized using Cytofix/Cytoperm solution for 20 min at 4° C. Cells were stained for intracellular cytokines and T-bet for 30 min at 4° C. 80,000-100,000 live cell events were acquired on a FACSCanto (BD) and analyzed using FlowJo software (Tree Star, Inc.). PerCP-anti-CD4, and Pacific Blue-anti-CD44 were purchased from BD. PE-anti-PD-1, PE-Cy7-anti-IL-7Rα and Pacific Blue-anti-T-bet were purchased from Biolegend Biotechnology, Inc.
LLL12b suppresses pSTAT3 expression and IL-17 production in myelin-specific CD4 T cells in a dose-dependent manner. LLL21b was further tested to assess suppression of pSTAT3 expression in myelin-specific CD4 T cells. FIGS. 7A-7B show representative data for the effect of a representative disclosed compound, LLL12b, on IL-17 production, pSTAT3 levels, and cell viability under various conditions. […]

chronic EAE model of MS = experiment: Chronic EAE model of MS (MOG-immunized B6 mice); type: in vivo
Method: as §1
The in vivo efficacy of LLL12b was also evaluated in chronic EAE model of MS in immunized B6 mice by treating EAE mice with […] of LLL12b for 7 days after disease onset. FIGS. 8A-8B show representative data for the effect of a representative disclosed compound, LLL12b, for suppression of EAE development in a chronic EAE model of MS. Briefly, naïve WT/B6 mice were immunized with […].

[3] = test system: splenocytes from naïve TCR transgenic mice; experiment: Cellular toxicity, trypan blue exclusion assay; type: cell-based; details: 24 h, 48 h, 72 h; at the doses showing significant suppression of IL-17 production
Method: In vitro toxicity evaluation of new STAT3 prodrugs. Cellular toxicity testing was carried out using a trypan blue exclusion assay as described herein. FIGS. 6A-6C show representative data for cell viability after treatment with DMSO or the indicated concentration of the indicated representative prodrug at 24 h, 48 h, and 72 h post-treatment. The data were obtained using a trypan blue exclusion assay using splenocytes from naïve TCR transgenic mice that were cultured as described.

CN(C)C(=O)Oc1cccc2c1C(=O)c1cccc(S(N)(=O)=O)c1C2=O [LLL12b]
EAE development (in words) ([1]; 10 mg/kg daily intraperitoneal for 7 days after disease onset): significantly suppresses EAE development
level of CD25+FoxP3+CD4+ Treg cells in splenocytes of treated animals ([1]; ex vivo flow cytometry): statistically significant increase
production of IFNγ by splenocytes of treated animals (ELISA) ([1]; ex vivo, activated with MBP Ac1-11 for 3 days): notable decrease
Area under the curve (clinical score) ([1]; i.p. daily for 7 days): 22.12 ± 2.09 ^c
Incidence of EAE (%) ([1]; i.p. daily for 7 days, starting when 70% of the mice developed clinical EAE): 26/34 (76%) ^a
Mean peak clinical score ([1]; i.p. daily for 7 days, ± SEM): 2.03 ± 0.27 ^b
pSTAT3 expression [2]: notably suppresses pSTAT3 expression
EAE development (mean clinical score) (chronic EAE model of MS; 10 mg/kg for 7 days, day 14 to day 20, after disease onset): significantly suppresses EAE development
IL-17 production of splenocytes from treated mice (ELISA) (chronic EAE model of MS; ex vivo, activated with MOG 35-55 for 3 days): decreased IL-17 production
cellular toxicity (cell viability, trypan blue exclusion) [3]: minimal cellular toxicity
